Results as given in the NIST ThermoML archive (doi:10.1021/je200215d).
± gives the expanded uncertainty stated by the source. Blank lines part the entries; values can stand above or below the compound they belong to.

How the values were obtained:
[1] = xn = mol fraction of the nth substance listed; conditions: 303.15 K, Maximal bubble pressure
[2] = refractive index (Na D-line) (dimensionless); conditions: 298.15 K; 101.33 kPa; Liquid; Standard Abbe refractometry
[3] = for surface tension liquid-gas / mass density: 298.15 K; for surface tension liquid-gas: Maximal bubble pressure; for mass density: 101.33 kPa, Vibrating tube method; for mass density / vapor or sublimation pressure: Liquid; for vapor or sublimation pressure: Ebulliometric method (Recirculating still)

surface tension liquid-gas ([1]; x1 = 1): 21.7 ± 0.26 mN/m
SMILES: CCO [ethanol] + CCC(C)(C)OC

surface tension liquid-gas ([1]; x2 = 0): 22 ± 0.26 mN/m
surface tension liquid-gas ([1]; x2 = 0.04): 21.97 ± 0.26 mN/m
surface tension liquid-gas ([1]; x2 = 0.071): 21.95 ± 0.26 mN/m
surface tension liquid-gas ([1]; x2 = 0.137): 21.93 ± 0.26 mN/m
surface tension liquid-gas ([1]; x2 = 0.198): 21.9 ± 0.26 mN/m
surface tension liquid-gas ([1]; x2 = 0.252): 21.88 ± 0.26 mN/m
surface tension liquid-gas ([1]; x2 = 0.303): 21.86 ± 0.26 mN/m
surface tension liquid-gas ([1]; x2 = 0.41): 21.84 ± 0.26 mN/m
surface tension liquid-gas ([1]; x2 = 0.508): 21.81 ± 0.26 mN/m
surface tension liquid-gas ([1]; x2 = 0.611): 21.78 ± 0.26 mN/m
surface tension liquid-gas ([1]; x2 = 0.708): 21.76 ± 0.26 mN/m
surface tension liquid-gas ([1]; x2 = 0.803): 21.73 ± 0.26 mN/m
surface tension liquid-gas ([1]; x2 = 0.898): 21.71 ± 0.26 mN/m
SMILES: CCC(C)(C)OC [2-methoxy-2-methylbutane] + CCO

refractive index [2]: 1.36068 ± 0.00072
surface tension liquid-gas [3]: 21.7 ± 0.23 mN/m
mass density [3]: 785.05 ± 0.16 kg/m3
vapor or sublimation pressure ([3]; 351.45 K): 101.33 ± 0.21 kPa
SMILES: CCO [ethanol]

refractive index [2]: 1.38712 ± 0.00072
surface tension liquid-gas [3]: 22 ± 0.23 mN/m
mass density [3]: 765.8 ± 0.18 kg/m3
vapor or sublimation pressure ([3]; 359.52 K): 101.33 ± 0.21 kPa
SMILES: CCC(C)(C)OC [2-methoxy-2-methylbutane]
